From US20090227602A1, “COMPOSITIONS AND TREATMENTS FOR INHIBITING KINASE AND/OR HMG-COA REDUCTASE” (priority 2005, published 2009) come the findings set out here.

Assay [1] has as its target T1, rat liver hydroxymethylglutaryl-CoA reductase (Rattus norvegicus, UniProt P51639).
T1 sequence (P51639 1-887): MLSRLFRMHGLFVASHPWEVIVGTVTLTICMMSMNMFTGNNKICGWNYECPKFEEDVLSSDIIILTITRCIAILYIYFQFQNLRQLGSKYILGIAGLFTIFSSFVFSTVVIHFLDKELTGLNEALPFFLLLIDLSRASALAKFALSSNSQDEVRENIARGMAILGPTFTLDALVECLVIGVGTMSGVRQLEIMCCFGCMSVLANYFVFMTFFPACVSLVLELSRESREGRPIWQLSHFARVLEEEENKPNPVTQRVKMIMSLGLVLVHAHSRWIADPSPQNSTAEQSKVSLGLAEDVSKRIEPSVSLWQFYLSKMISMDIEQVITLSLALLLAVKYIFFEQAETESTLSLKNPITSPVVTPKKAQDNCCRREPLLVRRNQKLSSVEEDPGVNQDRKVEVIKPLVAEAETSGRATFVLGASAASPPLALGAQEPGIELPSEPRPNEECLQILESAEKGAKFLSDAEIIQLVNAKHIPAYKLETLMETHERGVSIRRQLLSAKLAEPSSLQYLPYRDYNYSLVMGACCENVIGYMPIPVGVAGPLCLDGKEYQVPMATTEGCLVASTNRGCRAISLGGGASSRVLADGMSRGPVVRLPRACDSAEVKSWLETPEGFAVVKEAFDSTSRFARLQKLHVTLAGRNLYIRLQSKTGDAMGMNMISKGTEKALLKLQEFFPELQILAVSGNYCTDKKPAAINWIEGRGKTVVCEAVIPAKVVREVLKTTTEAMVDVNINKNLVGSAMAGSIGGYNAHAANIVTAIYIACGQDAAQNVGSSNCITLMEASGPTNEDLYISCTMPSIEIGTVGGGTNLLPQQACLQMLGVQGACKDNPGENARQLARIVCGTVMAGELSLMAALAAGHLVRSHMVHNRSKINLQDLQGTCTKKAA
Briefly: Inhibition of rat liver HMG-CoA reductase. The class given is biochemical. The following applies: rat liver HMG-CoA reductase activity inhibited by 50%; read-out: HMG-CoA R IC50. As for the experimental part: (§1) The biological activities of compounds of the present invention were measured in assays which include: • 1) Inhibition of rat liver HMG-CoA reductase. Further details on the assay are present in Heller, R. A.; Gould, R. G. Biochem. Biophys. Research Commun. 1973, 50, 859 and Kubo, M.; Strott, C. A.; Endocrinology 1987, 120, 214. • 2) Inhibition of recombinant human p38αMAPK • 3) Inhibition of lipopolysaccharide (LPS)-stimulated release of tumor necrosis factor alpha (TNFα) from human peripheral blood mononuclear cells (PBMC).

The target in assay [2] is T2, recombinant human p38α MAPK (Homo sapiens, UniProt Q16539).
T2 construct: purchased UBI 14-251; host or cells: E. coli
Kind of assay: Human p38α MAP kinase inhibition assay (cell-free). The conditions noted are these: MBP substrate, 100 μM ATP. Type of assay: biochemical. As for the experimental part: as §1
Human p38αMAP Kinase Inhibition Assay: In vitro cell-free p38αMAP kinase inhibition assays were conducted by the method as described in Clerk et al., FEBS Lett., 426:93-96 (1998) for a number of lactones in formulas I/IIa/IIb. Briefly, human recombinant p38α protein kinase expressed in E. coli (UBI #14-251) was used. Myelin basic protein (MBP, UBI #13-110) was employed as substrate, and microtiter plate wells were coated with MBP (0.01 mg/ml) overnight at 4° C. Candidate compound and/or vehicle was preincubated with 0.075 μg/mL enzyme in modified HEPES buffer pH 7.4 at 25° C. for 15 minutes. The reaction was initiated by addition of 100 μM ATP and allowed to proceed for another 60 minutes. The reaction was terminated by aspirating the solution. Phosphorylated MBP was detected by incubation with a mouse monoclonal IgG2a anti-phosphoMBP antibody. Bound anti-phosphoMBP antibody was quantitated by incubation with a HRP conjugated goat anti-mouse IgG. The protein kinase activity was proportional to the readings of optical density at 405 nm resulting from reaction with an ABTS Microwell Peroxidase Substrate System.

Assay [3] concerns lipopolysaccharide-stimulated release of TNFα from human peripheral blood mononuclear cells (PBMC). Briefly: Whole cell LPS-stimulated TNF-α release assay. The class given is cell-based. The conditions noted are these: read-out: TNFα Release IC50. As for the experimental part: as §1
Whole Cell LPS-Stimulated TNF-α Release Assay: The procedure as described in Welker et al., Int. Arch. Allergy and Immunol. 109:110-115 (1996) was followed. Briefly, a candidate compound and/or vehicle was preincubated with human peripheral blood mononuclear leukocytes (PBML, 5×10^5/ml) cells in AIM-V medium pH 7.4 for 2 hours. Lipopolysaccharide (LPS, 25 ng/ml) was added to stimulate the cells, which was incubated overnight at 37° C. TNF-α cytokine levels in the conditioned medium was then quantitated using a sandwich ELISA kit.

Structures can show the parent of a compound that is named as a salt. Where two headings read alike, the source gives them in different places.

T2 sequence (Q16539 whole entry): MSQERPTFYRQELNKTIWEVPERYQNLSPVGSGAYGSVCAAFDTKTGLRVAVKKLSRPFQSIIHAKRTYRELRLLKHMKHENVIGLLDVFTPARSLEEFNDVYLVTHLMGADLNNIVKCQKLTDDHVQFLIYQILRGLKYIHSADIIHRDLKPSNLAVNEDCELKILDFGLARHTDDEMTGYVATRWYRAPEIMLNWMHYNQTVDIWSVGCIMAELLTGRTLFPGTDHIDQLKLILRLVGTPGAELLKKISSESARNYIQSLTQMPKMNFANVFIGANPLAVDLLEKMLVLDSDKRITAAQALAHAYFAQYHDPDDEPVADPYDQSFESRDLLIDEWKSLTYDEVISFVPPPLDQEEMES

As to `CC(C)c1nc(-c2ccc(F)cc2)c(-c2ccnc(Nc3ccccc3)n2)n1/C=C/[C@@H](O)C[C@@H](O)CC(=O)O` (racemic) [Example 28, (3R,5S,E) and (3S,5R,E)-7-(4-(4-fluorophenyl)-2-isopropyl-5-(2-(phenylamino)pyrimidin-4-yl)-1H-imidazol-1-yl)-3,5-dihydroxyhept-6-enoic acid sodium salt], the IC50 worked out at 0.0048 µM in assay [1], 0.27 µM in assay [2] and 9.7 µM in assay [3] (LPS-stimulated human PBMC).
For `CC(C)c1nc(-c2ccc(F)cc2)c(-c2ccnc(Nc3ccccc3)n2)n1/C=C/[C@@H]1C[C@@H](O)CC(=O)O1` (racemic) [Example 29, (4R,6S) and (4S,6R)-6-((E)-2-(4-(4-fluorophenyl)-2-isopropyl-5-(2-(phenylamino)pyrimidin-4-yl)-1H-imidazol-1-yl)vinyl)-4-hydroxytetrahydro-2H-pyran-2-one], the IC50 was less than 0.1 µM in assay [2] and 19 µM in assay [3] (LPS-stimulated human PBMC).
In the case of `CC(C)(C)c1nc(-c2ccc(F)cc2)c(-c2ccncc2)n1/C=C/[C@@H](O)C[C@@H](O)CC(=O)O` (racemic) [Example 33, (3R,5S,E) and (3S,5R,E)-7-(2-tert-butyl-4-(4-fluorophenyl)-5-(pyridin-4-yl)-1H-imidazol-1-yl)-3,5-dihydroxyhept-6-enoic acid sodium salt], the half-inhibitory concentration (IC50) stood at 0.011 µM in assay [1], 6 µM in assay [2] and 230 µM in assay [3] (LPS-stimulated human PBMC).
On to `CC(C)(C)c1nc(-c2ccc(F)cc2)c(-c2ccncc2)n1/C=C/[C@@H]1C[C@@H](O)CC(=O)O1` (racemic) [Example 34, (4R,6S) and (4S,6R)-6-((E)-2-(2-tert-butyl-4-(4-fluorophenyl)-5-(pyridin-4-yl)-1H-imidazol-1-yl)vinyl)-4-hydroxytetrahydro-2H-pyran-2-one], for which the IC50 in assay [2] stood at 1.8 µM; in assay [3] (LPS-stimulated human PBMC), 190 µM.
On to `CC(C)c1nc(-c2ccc(F)cc2)c(-c2ccnc(Nc3ccccc3)n2)n1CC[C@@H]1C[C@@H](O)CC(=O)O1` [Example 24, (4R,6R)-6-(2-(4-(4-fluorophenyl)-2-isopropyl-5-(2-(phenylamino)pyrimidin-4-yl)-1H-imidazol-1-yl)ethyl)-4-hydroxytetrahydro-2H-pyran-2-one], for which the IC50 is 0.11 µM in assay [2] and less than 3 µM in assay [3] (LPS-stimulated human PBMC).
Take `CC(C)c1nc(-c2ccc(F)cc2)c(-c2ccnc(Nc3ccccc3)n2)n1CC[C@@H](O)C[C@@H](O)CC(=O)O` [Example 25, (3R,5R)-7-(4-(4-fluorophenyl)-2-isopropyl-5-(2-(phenylamino)pyrimidin-4-yl)-1H-imidazol-1-yl)-3,5-dihydroxyheptanoic acid sodium salt]: the IC50 in assay [1] was 0.098 µM; in assay [2], less than 0.1 µM; in assay [3] (LPS-stimulated human PBMC), 9.7 µM.
On to `O=C(O)C[C@H](O)C[C@H](O)CCn1c(-c2ccccc2)nc(-c2ccc(F)cc2)c1-c1ccncn1` [Example 39, (3R,5R)-7-(4-(4-fluorophenyl)-2-phenyl-5-(pyrimidin-4-yl)-1H-imidazol-1-yl)-3,5-dihydroxyheptanoic acid calcium salt], for which the half-maximal inhibitory concentration (IC50) in assay [1] is more than 1 µM; in assay [2], 14 µM; in assay [3] (Homo sapiens, PBMC) it was more than 300 µM.
Turning to `O=C1C[C@H](O)C[C@@H](CCn2c(-c3ccccc3)nc(-c3ccc(F)cc3)c2-c2ccncn2)O1` [Example 40, (4R,6R)-6-(2-(4-(4-fluorophenyl)-2-phenyl-5-(pyrimidin-4-yl)-1H-imidazol-1-yl)ethyl)-4-hydroxytetrahydro-2H-pyran-2-one], the half-inhibitory concentration (IC50) in assay [2] came out at 1.4 µM; in assay [3] (LPS-stimulated human PBMC), 26 µM.

A word on the IC50: it is the concentration at which inhibition is half-maximal.
